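How tested: cells in 96-well plates exposed to compound for 48 hours at five concentrations. GI50: concentration for 50% inhibition of growth.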 Calls of active or inactive are those of the source. Cut-off read from the data, not from the text of the source: active = GI50 up to about 1.1 µM and inactive = higher.
Tests used:
Test in all cases: NCI anticancer screen, dose series, 48 h
[1] = test system: HCT-15
[2] = test system: CCRF-CEM
[3] = test system: Malme-3M
[4] = test system: EKVX
[5] = test system: HOP-92
[6] = test system: HOP-62
[7] = test system: A498
[8] = test system: SF-539
[9] = test system: LOX IMVI
[10] = test system: SN12C
[11] = test system: OVCAR-8
[12] = test system: SNB-19
[13] = test system: HL-60
[14] = test system: SK-MEL-28
[15] = test system: OVCAR-5
[16] = test system: T47D
[17] = test system: RPMI-8226
[18] = test system: SW-620
[19] = test system: A549
[20] = test system: MDA-MB-231
[21] = test system: MOLT-4
[22] = test system: MDA-N
[23] = test system: MDA-MB-435
[24] = test system: OVCAR-3
[25] = test system: 786-0
[26] = test system: SK-OV-3
[27] = test system: UO-31
[28] = test system: OVCAR-4
[29] = test system: HT-29
[30] = test system: CAKI-1
[31] = test system: MCF7
[32] = test system: PC-3
[33] = test system: SF-268
[34] = test system: KM12
[35] = test system: SK-MEL-5
[36] = test system: K562
[37] = test system: TK-10
[38] = test system: ACHN
[39] = test system: Hs-578T
[40] = test system: HCT-116
[41] = test system: UACC-62
[42] = test system: M14
[43] = test system: NCI-H460
[44] = test system: BT-549
[45] = test system: NCI-H23
[46] = test system: NCI/ADR-RES
[47] = test system: U-251
[48] = test system: RXF 393
[49] = test system: NCI-H522
[50] = test system: DU-145
[51] = test system: SR
[52] = test system: COLO 205
[53] = test system: UACC-257
[54] = test system: IGROV-1
[55] = test system: SK-MEL-2
[56] = test system: SNB-75
[57] = test system: SF-295
[58] = test system: HCC 2998
[59] = test system: NCI-H226

Cc1ccc(C)c(NC(=O)C(Cc2c[nH]c3ccccc23)NC(=O)OCc2ccccc2)c1 (stereo not drawn)
GI50 [1]: 20.9 µM
GI50 [2]: 1.42 µM (inactive)
GI50 [3]: 25.4 µM (inactive)
GI50 [4]: 14.5 µM (inactive)
GI50 [5]: 17.2 µM (inactive)
GI50 [6]: 48.8 µM (inactive)
GI50 [7]: 35.6 µM (inactive)
GI50 [8]: 8.53 µM (inactive)
GI50 [9]: 37.3 µM (inactive)
GI50 [10]: 24.7 µM (inactive)
GI50 [11]: 17.5 µM (inactive)
GI50 [12]: 13.8 µM (inactive)
GI50 [13]: 3 µM (inactive)
GI50 [14]: 25.8 µM (inactive)
GI50 [15]: 25.6 µM (inactive)
GI50 [16]: 9.18 µM (inactive)
GI50 [17]: 12 µM (inactive)
GI50 [18]: 15.1 µM (inactive)
GI50 [19]: 13.2 µM (inactive)
GI50 [20]: 16.1 µM (inactive)
GI50 [21]: 4.52 µM (inactive)
GI50 [22]: 29.3 µM (inactive)
GI50 [23]: 21.9 µM (inactive)
GI50 [24]: 29.7 µM (inactive)
GI50 [25]: 15.5 µM (inactive)
GI50 [26]: 20.1 µM (inactive)
GI50 [27]: 15.4 µM (inactive)
GI50 [28]: 5.12 µM (inactive)
GI50 [29]: 12.4 µM (inactive)
GI50 [30]: 16.4 µM (inactive)
GI50 [31]: 23.1 µM (inactive)
GI50 [32]: 11.5 µM (inactive)
GI50 [33]: 26.4 µM (inactive)
GI50 [34]: 16.5 µM (inactive)
GI50 [35]: 10.8 µM (inactive)
GI50 [36]: 12.7 µM (inactive)
GI50 [37]: 15.3 µM (inactive)
GI50 [38]: 22.9 µM (inactive)
GI50 [39]: 58.7 µM (inactive)
GI50 [40]: 23 µM (inactive)
GI50 [41]: 15.9 µM (inactive)
GI50 [42]: 13.6 µM (inactive)
GI50 [43]: 13.7 µM (inactive)
GI50 [44]: 21.8 µM (inactive)
GI50 [45]: 21.3 µM (inactive)
GI50 [46]: 11.1 µM (inactive)
GI50 [47]: 17.1 µM (inactive)
GI50 [48]: 6.34 µM (inactive)
GI50 [49]: 16.1 µM (inactive)
GI50 [50]: 13.5 µM (inactive)
GI50 [51]: 14.3 µM (inactive)
GI50 [52]: 13.2 µM (inactive)
GI50 [53]: 10.6 µM (inactive)
GI50 [54]: 18.2 µM (inactive)
GI50 [55]: 16 µM (inactive)
GI50 [56]: 11.3 µM (inactive)
GI50 [57]: 25.8 µM (inactive)

C/C(=N\NC(N)=S)c1cccs1.OB(O)c1ccccc1
GI50 [1]: > 100 µM
GI50 [58]: > 100 µM (inactive)
GI50 [2]: > 100 µM (inactive)
GI50 [3]: > 100 µM (inactive)
GI50 [5]: > 100 µM (inactive)
GI50 [6]: > 100 µM (inactive)
GI50 [7]: > 100 µM (inactive)
GI50 [8]: > 100 µM (inactive)
GI50 [9]: > 100 µM (inactive)
GI50 [10]: > 100 µM (inactive)
GI50 [11]: > 100 µM (inactive)
GI50 [12]: > 100 µM (inactive)
GI50 [13]: > 100 µM (inactive)
GI50 [14]: > 100 µM (inactive)
GI50 [15]: > 100 µM (inactive)
GI50 [16]: 75 µM (inactive)
GI50 [17]: > 100 µM (inactive)
GI50 [18]: > 100 µM (inactive)
GI50 [19]: > 100 µM (inactive)
GI50 [20]: > 100 µM (inactive)
GI50 [21]: > 100 µM (inactive)
GI50 [59]: > 100 µM (inactive)
GI50 [22]: > 100 µM (inactive)
GI50 [23]: > 100 µM (inactive)
GI50 [24]: > 100 µM (inactive)
GI50 [25]: > 100 µM (inactive)
GI50 [26]: > 100 µM (inactive)
GI50 [27]: 66.7 µM (inactive)
GI50 [28]: > 100 µM (inactive)
GI50 [29]: > 100 µM (inactive)
GI50 [31]: > 100 µM (inactive)
GI50 [32]: > 100 µM (inactive)
GI50 [33]: > 100 µM (inactive)
GI50 [34]: > 100 µM (inactive)
GI50 [35]: > 100 µM (inactive)
GI50 [36]: > 100 µM (inactive)
GI50 [37]: > 100 µM (inactive)
GI50 [38]: > 100 µM (inactive)
GI50 [39]: > 100 µM (inactive)
GI50 [40]: > 100 µM (inactive)
GI50 [41]: > 100 µM (inactive)
GI50 [42]: > 100 µM (inactive)
GI50 [43]: > 100 µM (inactive)
GI50 [44]: > 100 µM (inactive)
GI50 [45]: > 100 µM (inactive)
GI50 [46]: > 100 µM (inactive)
GI50 [47]: > 100 µM (inactive)
GI50 [49]: 70.6 µM (inactive)
GI50 [50]: > 100 µM (inactive)
GI50 [51]: > 100 µM (inactive)
GI50 [52]: > 100 µM (inactive)
GI50 [54]: > 100 µM (inactive)
GI50 [56]: > 100 µM (inactive)
GI50 [57]: > 100 µM (inactive)

CNc1ncnc2c1cnn2Cc1cn(CCCCO)nn1
GI50 [1]: > 100 µM
GI50 [58]: > 100 µM (inactive)
GI50 [2]: > 100 µM (inactive)
GI50 [3]: > 100 µM (inactive)
GI50 [4]: > 100 µM (inactive)
GI50 [5]: > 100 µM (inactive)
GI50 [6]: > 100 µM (inactive)
GI50 [7]: > 100 µM (inactive)
GI50 [8]: > 100 µM (inactive)
GI50 [9]: > 100 µM (inactive)
GI50 [10]: > 100 µM (inactive)
GI50 [11]: > 100 µM (inactive)
GI50 [12]: > 100 µM (inactive)
GI50 [14]: > 100 µM (inactive)
GI50 [15]: > 100 µM (inactive)
GI50 [16]: > 100 µM (inactive)
GI50 [17]: > 100 µM (inactive)
GI50 [18]: > 100 µM (inactive)
GI50 [19]: > 100 µM (inactive)
GI50 [20]: > 100 µM (inactive)
GI50 [21]: > 100 µM (inactive)
GI50 [59]: > 100 µM (inactive)
GI50 [22]: > 100 µM (inactive)
GI50 [23]: > 100 µM (inactive)
GI50 [24]: > 100 µM (inactive)
GI50 [25]: > 100 µM (inactive)
GI50 [26]: > 100 µM (inactive)
GI50 [27]: > 100 µM (inactive)
GI50 [28]: > 100 µM (inactive)
GI50 [29]: > 100 µM (inactive)
GI50 [30]: > 100 µM (inactive)
GI50 [31]: > 100 µM (inactive)
GI50 [32]: > 100 µM (inactive)
GI50 [33]: > 100 µM (inactive)
GI50 [34]: > 100 µM (inactive)
GI50 [35]: > 100 µM (inactive)
GI50 [36]: > 100 µM (inactive)
GI50 [37]: > 100 µM (inactive)
GI50 [38]: > 100 µM (inactive)
GI50 [39]: > 100 µM (inactive)
GI50 [40]: > 100 µM (inactive)
GI50 [41]: > 100 µM (inactive)
GI50 [42]: > 100 µM (inactive)
GI50 [43]: > 100 µM (inactive)
GI50 [44]: > 100 µM (inactive)
GI50 [45]: > 100 µM (inactive)
GI50 [46]: > 100 µM (inactive)
GI50 [47]: > 100 µM (inactive)
GI50 [48]: > 100 µM (inactive)
GI50 [49]: > 100 µM (inactive)
GI50 [50]: > 100 µM (inactive)
GI50 [51]: > 100 µM (inactive)
GI50 [52]: > 100 µM (inactive)
GI50 [53]: > 100 µM (inactive)
GI50 [54]: > 100 µM (inactive)
GI50 [55]: > 100 µM (inactive)
GI50 [57]: > 100 µM (inactive)
